Test results published in patent US8518931B2, “Compounds and compositions as kinase inhibitors” (IRM LLC, priority 2008, dated 2013).

Each compound was assayed against T1, NPM-ALK (Homo sapiens, UniProt Q9UM73) (assay: NPM-ALK BaF3 assay (growth inhibition of BaF3-NPM-ALK cells)). Settings: human NPM-ALK overexpressing murine BaF3 cells.
T1 construct: nucleophosmin (NPM, NPM1; human P06748) fusion partner; expressed in transfected cells; host or cells: murine BaF3 cells (DSMZ), transfected with pCIneo (Promega) coding for NPM-ALK and selected with G418; the other entry of the earlier key: Npm1 (Q61937, Nucleophosmin)
T1 sequence (Q9UM73 with tags, fused parts or gaps): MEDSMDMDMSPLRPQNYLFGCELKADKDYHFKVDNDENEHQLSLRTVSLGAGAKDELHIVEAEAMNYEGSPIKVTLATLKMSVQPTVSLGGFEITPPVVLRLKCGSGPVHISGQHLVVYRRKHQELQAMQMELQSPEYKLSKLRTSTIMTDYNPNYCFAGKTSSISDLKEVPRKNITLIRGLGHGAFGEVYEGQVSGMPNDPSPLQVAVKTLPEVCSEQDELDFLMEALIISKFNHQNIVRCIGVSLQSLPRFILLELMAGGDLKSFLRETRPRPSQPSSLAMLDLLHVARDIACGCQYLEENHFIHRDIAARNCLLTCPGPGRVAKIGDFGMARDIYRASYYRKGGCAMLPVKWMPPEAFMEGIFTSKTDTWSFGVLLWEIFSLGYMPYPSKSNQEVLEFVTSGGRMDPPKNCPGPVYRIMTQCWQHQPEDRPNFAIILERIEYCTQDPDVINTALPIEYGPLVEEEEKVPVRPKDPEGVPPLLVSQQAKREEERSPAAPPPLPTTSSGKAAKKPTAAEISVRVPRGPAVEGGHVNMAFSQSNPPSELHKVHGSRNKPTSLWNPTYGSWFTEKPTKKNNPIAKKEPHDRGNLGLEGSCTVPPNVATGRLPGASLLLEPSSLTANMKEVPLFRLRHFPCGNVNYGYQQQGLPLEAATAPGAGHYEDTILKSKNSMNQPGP
Format: cell-based
From the text: The expression of NPM-ALK may be achieved by transfecting the BaF3 cell line with an expression vector pClneo™ (Promega Corp., Madison Wis., USA) coding for NPM-ALK and subsequent selection of G418 resistant cells. Non-transfected BaF3 cells depend on IL-3 for cell survival. In contrast, NPM-ALK expressing BaF3 cells (named BaF3-NPM-ALK hereinafter) can proliferate in the absence of IL-3 because they obtain proliferative signal through NPM-ALK kinase. Putative inhibitors of the NPM-ALK kinase therefore abolish the growth signal and may result in antiproliferative activity. The antiproliferative activity of putative inhibitors of the NPM-ALK kinase can however be overcome by addition of IL-3, which provides growth signals through an NPM-ALK independent mechanism. An analogous cell system using FLT3 kinase has also been described (see, E Weisberg et al. Cancer Cell; 1, 433-443 (2002)).
The inhibitory activity of the compounds of the invention may be determined as follows. In general, BaF3-NPM-ALK cells (15,000/microtitre plate well) are transferred to 96-well microtitre plates. Test compounds dissolved in dimethyl sulfoxide (DMSO) are added in a series of concentrations (dilution series) in such a manner that the final concentration of DMSO is not greater than 1% (v/v). After the addition, the plates are incubated for two days during which the control cultures without test compound are able to undergo two cell-division cycles. The growth of the BaF3-NPM-ALK cells is measured by means of YOPRO™ staining [T Idziorek et al. J. Immunol. Methods; 185: 249-258 (1995)]: 25 μl of lysis buffer comprising 20 mM sodium citrate, pH 4.0, 26.8 mM sodium chloride, 0.4% NP40, 20 mM EDTA and […] to each well. Cell lysis is completed within 60 min at room temperature and total amount of YOPRO™ bound to DNA is determined by measurement using the Cytofluor II 96-well reader (PerSeptive Biosystems) with the following settings: Excitation (nm) 485/20 and Emission (nm) 530/25.
IC50 values may be determined by a computer-aided system using the formula: IC50=[(ABStest−ABSstart)/(ABScontrol−ABSstart)]×100·(ABS=absorption)
In general, compounds of the invention have IC50 values from 1 nM to 10 μM. In some examples, compounds of the invention have IC50 values from 0.01 μM to 5 μM. In other examples, compounds of the invention have IC50 values from 0.01 μM to 1 μM, or more particularly from 1 nM to 1 μM.
Table 1 describes representative compounds of the invention, prepared following the procedures described above. IC50 values are as measured in an NPM-ALK BaF3 assay.

| Compound | IC50 |
| --- | --- |
| COc1cc(C2CCN(C(=O)[C@H](C)NCCO)CC2)c(C)cc1Nc1nc(Nc2ccccc2S(=O)(=O)C(C)C)n2nccc2n1 [Ex 65] | 37 nM |
| COc1cc(C2CCN(C(=O)[C@H](C)N(C)C)CC2)c(C)cc1Nc1nc(Nc2ccccc2S(=O)(=O)C(C)C)n2nccc2n1 [Ex 66] | 32 nM |
| COc1cc(C2CCN(C(=O)[C@H](C)N)CC2)c(C)cc1Nc1nc(Nc2ccccc2S(=O)(=O)C(C)C)n2nccc2n1 [Ex 67] | 40 nM |
| COc1cc(C2CCN(C(=O)[C@@H](N)CO)CC2)c(C)cc1Nc1nc(Nc2ccccc2S(=O)(=O)C(C)C)n2nccc2n1 [Ex 69] | 59 nM |
| COc1cc(C2CCN(C(=O)[C@H]3COCCN3)CC2)c(C)cc1Nc1nc(Nc2ccccc2S(=O)(=O)C(C)C)n2nccc2n1 [Ex 70, (R)-(4-(4-(4-(2-(isopropylsulfonyl)phenylamino)pyrazolo[1,5-a][1,3,5]triazin-2-ylamino)-5-methoxy-2-methylphenyl)piperidin-1-yl)(morpholin-3-yl)methanone] | 35 nM |
| COc1cc(C2CCN(C(=O)CCCN(C)C)CC2)c(C)cc1Nc1nc(Nc2ccccc2S(=O)(=O)C(C)C)n2nccc2n1 [Ex 72] | 58 nM |
| COc1cc(C2CCN(C(=O)CO)CC2)c(C)cc1Nc1nc(Nc2ccccc2S(=O)(=O)C(C)C)n2nccc2n1 [Ex 73] | 40 nM |
| COc1cc(C2CCN(C(=O)CN3CC[C@H](F)C3)CC2)c(C)cc1Nc1nc(Nc2ccccc2S(=O)(=O)C(C)C)n2nccc2n1 [Ex 76] | 75 nM |
| COc1cc(C2CCN(C(=O)CN3CC[C@H](O)C3)CC2)c(C)cc1Nc1nc(Nc2ccccc2S(=O)(=O)C(C)C)n2nccc2n1 [Ex 77] | 36 nM |
| COc1cc(C2CCN(C(=O)[C@H](C)N3CC[C@H](O)C3)CC2)c(C)cc1Nc1nc(Nc2ccccc2S(=O)(=O)C(C)C)n2nccc2n1 [Ex 78] | 36 nM |
| COc1cc(C2CCN(C(=O)[C@H](C)N3CC[C@@H](O)C3)CC2)c(C)cc1Nc1nc(Nc2ccccc2S(=O)(=O)C(C)C)n2nccc2n1 [Ex 79] | 38 nM |
| COc1cc(C2CCN(C(=O)[C@H](C)N3CCCC3)CC2)c(C)cc1Nc1nc(Nc2ccccc2S(=O)(=O)C(C)C)n2nccc2n1 [Ex 80] | 33 nM |
| COc1cc(C2CCN(C(=O)[C@H]3COC(C)(C)CN3)CC2)c(C)cc1Nc1nc(Nc2ccccc2S(=O)(=O)C(C)C)n2nccc2n1 [Ex 85] | 34 nM |
| COc1cc(C2CCN(C(=O)[C@H](N)CO)CC2)c(C)cc1Nc1nc(Nc2ccccc2S(=O)(=O)C(C)C)n2nccc2n1 [Ex 86] | 34 nM |
| COc1cc(C2CCN(C(=O)[C@@H]3COC(C)(C)CN3)CC2)c(C)cc1Nc1nc(Nc2ccccc2S(=O)(=O)C(C)C)n2nccc2n1 [Ex 87] | 29 nM |
| COc1cc(C2CCN(C(=O)CN3CCOCC3)CC2)c(C)cc1Nc1nc(Nc2ccccc2S(=O)(=O)C(C)C)n2nccc2n1 [Ex 88] | 47 nM |
| CC(C)S(=O)(=O)c1ccccc1Nc1nc(Nc2ccc(C3CCN(CC(N)=O)CC3)cc2)nc2ccnn12 [Ex 91] | 128 nM |
| CC(C)S(=O)(=O)c1ccccc1Nc1nc(Nc2ccc(C3CCN(CCC(N)=O)CC3)cc2)nc2ccnn12 [Ex 92] | 130 nM |
| CC(C)S(=O)(=O)c1ccccc1Nc1nc(Nc2ccc(C3CCN(C(=O)CN4CCC4)CC3)cc2)nc2ccnn12 [Ex 93] | 132 nM |
| COc1cc(C2CCN(C(=O)[C@@H](C)N3CCCC3)CC2)c(C)cc1Nc1nc(Nc2ccccc2S(=O)(=O)C(C)C)n2nccc2n1 [Ex 96] | 32 nM |
| COc1cc(C2CCN(C(=O)[C@@H](C)NCCO)CC2)c(C)cc1Nc1nc(Nc2ccccc2S(=O)(=O)C(C)C)n2nccc2n1 [Ex 97] | 32 nM |
| CCN(CC)CCC(=O)N1CCC(c2cc(OC)c(Nc3nc(Nc4ccccc4S(=O)(=O)C(C)C)n4nccc4n3)cc2C)CC1 [Ex 99] | 35 nM |
| COc1cc(C2CCN(C(=O)CCCN3CCCC3)CC2)c(C)cc1Nc1nc(Nc2ccccc2S(=O)(=O)C(C)C)n2nccc2n1 [Ex 100] | 33 nM |
| COc1cc(C2CCN(C(=O)CCCN3CCOCC3)CC2)c(C)cc1Nc1nc(Nc2ccccc2S(=O)(=O)C(C)C)n2nccc2n1 [Ex 101] | 31 nM |
| CCCN(CCC)CC(=O)N1CCC(c2cc(OC)c(Nc3nc(Nc4ccccc4S(=O)(=O)C(C)C)n4nccc4n3)cc2C)CC1 [Ex 102] | 49 nM |
| COc1cc(C2CCN(C(=O)CCN3CCCC3)CC2)c(C)cc1Nc1nc(Nc2ccccc2S(=O)(=O)C(C)C)n2nccc2n1 [Ex 104] | 49 nM |

Now those with a lower IC50, led by results:

| IC50 | Compound |
| --- | --- |
| 17 nM | COc1cc(C2CCN(C(=O)CN)CC2)c(C)cc1Nc1nc(Nc2ccccc2S(=O)(=O)C(C)C)n2nccc2n1 [Ex 68] |
| 22 nM | COc1cc(C2CCN(C(=O)[C@@H]3COCCN3)CC2)c(C)cc1Nc1nc(Nc2ccccc2S(=O)(=O)C(C)C)n2nccc2n1 [Ex 71] |
| 28 nM | COCCNCC(=O)N1CCC(c2cc(OC)c(Nc3nc(Nc4ccccc4S(=O)(=O)C(C)C)n4nccc4n3)cc2C)CC1 [Ex 74] |
| 26 nM | COc1cc(C2CCN(C(=O)[C@@H](C)N3CCC3)CC2)c(C)cc1Nc1nc(Nc2ccccc2S(=O)(=O)C(C)C)n2nccc2n1 [Ex 81] |
| 23 nM | COc1cc(C2CCN(C3CCOCC3)CC2)c(C)cc1Nc1nc(Nc2ccccc2S(=O)(=O)C(C)C)n2nccc2n1 [Ex 83] |
| 25 nM | COc1cc(C2CCN(C3CCSCC3)CC2)c(C)cc1Nc1nc(Nc2ccccc2S(=O)(=O)C(C)C)n2nccc2n1 [Ex 84] |
| 15 nM | COc1cc(C2CCN(CCC(=O)N3CCC3)CC2)c(C)cc1Nc1nc(Nc2ccccc2S(=O)(=O)C(C)C)n2nccc2n1 [Ex 89] |
| 13 nM | CNC(=O)CCN1CCC(c2cc(OC)c(Nc3nc(Nc4ccccc4S(=O)(=O)C(C)C)n4nccc4n3)cc2C)CC1 [Ex 90] |
| 16 nM | COC[C@H](N)C(=O)N1CCC(c2cc(OC)c(Nc3nc(Nc4ccccc4S(=O)(=O)C(C)C)n4nccc4n3)cc2C)CC1 [Ex 94] |
| 22 nM | COc1cc(C2CCN(C(=O)[C@H](C)N(C)CCO)CC2)c(C)cc1Nc1nc(Nc2ccccc2S(=O)(=O)C(C)C)n2nccc2n1 [Ex 95] |
| 13 nM | COc1cc(C2CCN(C(=O)[C@@H](C)N(C)CCO)CC2)c(C)cc1Nc1nc(Nc2ccccc2S(=O)(=O)C(C)C)n2nccc2n1 [Ex 98] |
| 16 nM | CCCNCC(=O)N1CCC(c2cc(OC)c(Nc3nc(Nc4ccccc4S(=O)(=O)C(C)C)n4nccc4n3)cc2C)CC1 [Ex 103] |
| 15 nM | CCNCC(=O)N1CCC(c2cc(OC)c(Nc3nc(Nc4ccccc4S(=O)(=O)C(C)C)n4nccc4n3)cc2C)CC1 [Ex 105] |
| 16 nM | COc1cc(C2CCN(C(=O)C(C)(CO)CO)CC2)c(C)cc1Nc1nc(Nc2ccccc2S(=O)(=O)C(C)C)n2nccc2n1 [Ex 106] |
| 16 nM | CCN(CC)CC(=O)N1CCC(c2cc(OC)c(Nc3nc(Nc4ccccc4S(=O)(=O)C(C)C)n4nccc4n3)cc2C)CC1 [Ex 110] |
